The test system of assay [1] is Colo205-TCF/LEF-Luciferase (Luc) tumor. The assay is described as follows: In vivo inhibition of TCF/LEF reporter activity in Colo-205 tumors. Also noted: concentration or dose not given beside the values. The following applies: TCF/LEF luciferase reporter in Colo-205 tumors, nu/nu mice, oral gavage. Here is the method:
Colo205-TCF/LEF-Luciferase (Luc) tumor cells were expanded in complete DMEM cell culture media [DMEM (Life Technologies, product #11960-051) media supplemented with 10% FBS (Hyclone, catalog #SH30071.03), antimycotic/antibiotic (Life Technologies, product #15240-062), and Glutamax (Life Technologies, product #35050-061)] with 1 ug/ml puromycin. After reaching confluency/high density, the loosely attached cells in media were transferred from the flask to 50 ml conical tubes. Tumor cells adhered to plastic were detached with trypsin and combined with cells in the conical tubes. The tumor cells were triturated, counted, and pelleted by centrifugation. Cell pellets were resuspended in 0.9% injectable saline (6×10^7 cells/ml). A 50 ul volume (3×10^6 cells) was injected subcutaneously in the flanks of 4-6 wk old female nu/nu mice (Charles River Laboratories). Approximately 13-16 days after implantation, tumors between 200-500 mm^3 were selected (based on caliper measurements and applying the formula […]) and randomized into groups of n=4. Mice were dosed by oral gavage with compound dissolved in 1:3:5:1 EtOH:DMSO:PEG-400:H2O at a rate of 10 ml/kg or 1:3:5:1 EtOH:DMSO:PEG-400:H2O alone (Vehicle Control). Tumors were collected from mice euthanized by CO2 inhalation and snap frozen in liquid nitrogen. Tumors were stored in a −80 degrees C. freezer until they were processed.
Tumors were thawed on ice and homogenized in cold Lysis Buffer (20 mM Tris-HCl (pH 7.5), 150 mM NaCl, 1 mM Na2EDTA, 1 mM EGTA, 1% Triton, 2.5 mM sodium pyrophosphate, 1 mM beta-glycerophosphate, 1 mM Na3VO4, 1 μg/ml leupeptin, 0.05% SDS) using a closed tissue grinder system (Fisher Scientific, Cat #02-542-09) on ice according to manufacturer's instructions. For 100 mg of tumor, 500 uL of Lysis Buffer was used. Tumor lysate was transferred to a pre-chilled microcentrifuge tube and centrifuged at 10,000×g for 10 minutes at 4 degrees C. Supernatant was transferred to a new pre-chilled microcentrifuge tube and was used immediately for analysis of protein content and luciferase activity.
Protein content of tumor lysate supernatant was determined using the BCA assay (Life Technologies Cat #23225). Luciferase activity of tumor lysate supernatant was determined by addition of Steady-Glo luminescence reagent (Promega, Cat #E2550) according to manufacturer's instructions and measurement on a Pherastar luminescence plate reader (BMG Labtech). Luciferase activity was normalized to protein content.
(In general: In a reporter assay the amount or activity of a reporter protein is the signal.)

Assay [2] relates to β-catenin-TCF-mediated reporter transcription activity in Colo 205 cells. The assay can be described thus: Colo 205 reporter assay (TCF/LEF luciferase). The following applies: Colo 205 TCF/LEF luciferase reporter, five hours after addition of compound, read-out: TCF reporter Colo205 IC50. It counts as cell-based. Put shortly: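 Luciferase signal from a TCF/LEF-driven reporter, stably integrated in Colo 205 colon cancer cells, was measured 5 h after compound addition.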

19 compounds from US20230312587A1, “PTERIDINONE COMPOUNDS AND USES THEREOF” (Vertex Pharmaceutical Incorporated, priority 2018, published 2023) can be followed below.

Read-outs that look alike come from different tables or passages of the source.

`Cc1nc(NCc2cnn(Cc3ccc(C(F)F)nc3)c2)nc2c1NC(=O)[C@H](C1CC1)N2C` [Compound 501, (S)-7-cyclopropyl-2-(((1-((6-(difluoromethyl)pyridin-3-yl)methyl)-1H-pyrazol-4-yl)methyl)amino)-4,8-dimethyl-7,8-dihydropteridin-6(5H)-one]: the “Percent Remaining Activity at 8 hrs after Dosing” value (“Percent Remaining Activity” for short) in assay [1] is given as 53%. The concentration for half-maximal inhibition (IC50) (in general, the concentration needed to halve the response being measured) in assay [2] (Homo sapiens, COLO 205, 5 h) is below 300 nM.

For the compound `Cc1nc(NCc2cnn(Cc3ccc(C(C)(F)F)nc3)c2)nc2c1NC(=O)[C@H](C(C)C)N2C` [Compound 511, (S)-2-(((1-((6-(1,1-difluoroethyl)pyridin-3-yl)methyl)-1H-pyrazol-4-yl)methyl)amino)-7-isopropyl-4,8-dimethyl-7,8-dihydropteridin-6(5H)-one], the “Percent Remaining Activity” value in assay [1] was 52%. Further, the IC50 in assay [2] (Homo sapiens, COLO 205, 5 h) was below 300 nM.

As for `Cc1nc(NCc2cnn(Cc3cnc(C(C)C)o3)c2)nc2c1NC(=O)[C@H](C(C)C)N2C` [Compound 517, (S)-7-isopropyl-2-(((1-((2-isopropyloxazol-5-yl)methyl)-1H-pyrazol-4-yl)methyl)amino)-4,8-dimethyl-7,8-dihydropteridin-6(5H)-one], in assay [1], the “Percent Remaining Activity” value amounted to 93%. Moreover, the IC50 in assay [2] (Homo sapiens, COLO 205, 5 h) is below 300 nM.

Take `Cc1nc(NCc2cnn(Cc3ccc(C(F)(F)F)o3)c2)nc2c1NC(=O)[C@H](C(C)C)N2C` [Compound 518, (S)-7-isopropyl-4,8-dimethyl-2-(((1-((5-(trifluoromethyl)furan-2-yl)methyl)-1H-pyrazol-4-yl)methyl)amino)-7,8-dihydropteridin-6(5H)-one]: the “Percent Remaining Activity” value in assay [1] is listed as 21%. Besides, the IC50 in assay [2] (Homo sapiens, COLO 205, 5 h) is below 300 nM.

Regarding `Cc1nc(N[C@@H]2CCc3nn(Cc4ccc(C(F)(F)F)nc4)cc32)nc2c1NC(=O)[C@H](C(C)C)N2C` [Compound 522, (S)-7-isopropyl-4,8-dimethyl-2-(((R)-2-((6-(trifluoromethyl)pyridin-3-yl)methyl)-2,4,5,6-tetrahydrocyclopenta[c]pyrazol-4-yl)amino)-7,8-dihydropteridin-6(5H)-one], in assay [1], the “Percent Remaining Activity” value worked out at 91%. For the same compound, the half-inhibitory concentration (IC50) in assay [2] (Homo sapiens, COLO 205, 5 h) was below 300 nM.

`Cc1nc(N[C@H]2C[C@@H](Nc3cc(C(F)(F)F)ncn3)C2)nc2c1NC(=O)[C@H](C(C)C)N2C` [Compound 528, (S)-7-isopropyl-4,8-dimethyl-2-((cis-3-((6-(trifluoromethyl)pyrimidin-4-yl)amino)cyclobutyl)amino)-7,8-dihydropteridin-6(5H)-one]: in assay [1], the “Percent Remaining Activity” value came to 28%. In addition, the IC50 in assay [2] (Homo sapiens, COLO 205, 5 h) is below 300 nM.

With `COc1c(F)cc(C(=O)N2CC(Nc3nc(C)c4c(n3)N(C)[C@@H](C(C)C)C(=O)N4)C2)cc1F` [Compound 542, (S)-2-((1-(3,5-difluoro-4-methoxybenzoyl)azetidin-3-yl)amino)-7-isopropyl-4,8-dimethyl-7,8-dihydropteridin-6(5H)-one], the “Percent Remaining Activity” value in assay [1] was 22%. Besides, the IC50 in assay [2] (Homo sapiens, COLO 205, 5 h) was below 300 nM.

Turning to `Cc1nc(NC2CN(C(=O)c3ccc(C(F)(F)F)nc3)C2)nc2c1NC(=O)[C@H](C(C)C)N2C` [Compound 545, (S)-7-isopropyl-4,8-dimethyl-2-((1-(6-(trifluoromethyl)nicotinoyl)azetidin-3-yl)amino)-7,8-dihydropteridin-6(5H)-one], the “Percent Remaining Activity” value in assay [1] was 51%. The IC50 in assay [2] (Homo sapiens, COLO 205, 5 h) was in the range of 300 to 1000 nM.

For `Cc1nc(NC2CN(C(=O)c3ccc(Cl)nc3)C2)nc2c1NC(=O)[C@H](C(C)C)N2C` [Compound 549, (S)-2-((1-(6-chloronicotinoyl)azetidin-3-yl)amino)-7-isopropyl-4,8-dimethyl-7,8-dihydropteridin-6(5H)-one], the “Percent Remaining Activity” value in assay [1] came out at 30%. Besides, the IC50 in assay [2] (Homo sapiens, COLO 205, 5 h) lay in the range of 1000 to 5000 nM.

For the compound `Cc1nc(N[C@H]2C[C@@H](Nc3ccc(C(F)(F)F)nn3)C2)nc2c1NC(=O)[C@H](C(C)C)N2C` [Compound 556, (S)-7-isopropyl-4,8-dimethyl-2-((cis-3-((6-(trifluoromethyl)pyridazin-3-yl)amino)cyclobutyl)amino)-7,8-dihydropteridin-6(5H)-one], the “Percent Remaining Activity” value in assay [1] was found to be 62%. In addition, the IC50 in assay [2] (Homo sapiens, COLO 205, 5 h) was below 300 nM.

On to `Cc1nc(N[C@H]2C[C@@H](Nc3cnc(C(F)(F)F)cn3)C2)nc2c1NC(=O)[C@H](C(C)C)N2C` [Compound 557, (S)-7-isopropyl-4,8-dimethyl-2-((cis-3-((5-(trifluoromethyl)pyrazin-2-yl)amino)cyclobutyl)amino)-7,8-dihydropteridin-6(5H)-one], for which, in assay [1], the “Percent Remaining Activity” value was 20%. For the same compound, the IC50 in assay [2] (Homo sapiens, COLO 205, 5 h) was below 300 nM.

Consider `CO[C@H](C)[C@H]1C(=O)Nc2c(C)nc(NCc3cnn(Cc4ccc(OC(F)(F)F)nc4)c3)nc2N1C` [Compound 565, (S)-7-((R)-1-methoxyethyl)-4,8-dimethyl-2-(((1-((6-(trifluoromethoxy)pyridin-3-yl)methyl)-1H-pyrazol-4-yl)methyl)amino)-7,8-dihydropteridin-6(5H)-one], for which, in assay [1], the “Percent Remaining Activity” value is 68%. Further, in assay [2] (Homo sapiens, COLO 205, 5 h), the IC50 was below 300 nM.

For `Cc1nc(N[C@H]2C[C@@H](Nc3cnc(C(F)(F)F)cn3)C2)nc2c1NC(=O)[C@H](C)N2C` [Compound 578, (S)-4,7,8-trimethyl-2-((cis-3-((5-(trifluoromethyl)pyrazin-2-yl)amino)cyclobutyl)amino)-7,8-dihydropteridin-6(5H)-one], the “Percent Remaining Activity” value in assay [1] came to 47%. Moreover, in assay [2] (Homo sapiens, COLO 205, 5 h), the IC50 is below 300 nM.

In the case of `COCC[C@H]1C(=O)Nc2c(C)nc(NCc3cnn(Cc4ccc(C(F)(F)F)nc4)c3)nc2N1C` [Compound 589, (S)-7-(2-methoxyethyl)-4,8-dimethyl-2-(((1-((6-(trifluoromethyl)pyridin-3-yl)methyl)-1H-pyrazol-4-yl)methyl)amino)-7,8-dihydropteridin-6(5H)-one], the “Percent Remaining Activity” value in assay [1] is given as 94%. In addition, the IC50 in assay [2] (Homo sapiens, COLO 205, 5 h) was below 300 nM.

Turning to `Cc1nc(N[C@H]2C[C@@H](Nc3cnc(C#N)cn3)C2)nc2c1NC(=O)[C@H](C(C)C)N2C` [Compound 602, 5-((cis-3-(((S)-7-isopropyl-4,8-dimethyl-6-oxo-5,6,7,8-tetrahydropteridin-2-yl)amino)cyclobutyl)amino)pyrazine-2-carbonitrile], the “Percent Remaining Activity” value in assay [1] is 57%. The IC50 in assay [2] (Homo sapiens, COLO 205, 5 h) lay within 300 to 1000 nM.

For `CO[C@H](C)[C@H]1C(=O)Nc2c(C)nc(NCc3cnn(Cc4cc(C(F)(F)F)nn4C)c3)nc2N1C` [Compound 656, (S)-7-((R)-1-methoxyethyl)-4,8-dimethyl-2-(((1-((1-methyl-3-(trifluoromethyl)-1H-pyrazol-5-yl)methyl)-1H-pyrazol-4-yl)methyl)amino)-7,8-dihydropteridin-6(511)-one], the “Percent Remaining Activity” value in assay [1] came to 51%. In addition, in assay [2], the IC50 was below 300 nM.

Turning to `CO[C@H](C)[C@H]1C(=O)Nc2c(C)nc(NCc3cnn(Cc4ccc(F)cc4)c3)nc2N1C` [Compound 658, (S)-2-(((1-(4-fluorobenzyl)-1H-pyrazol-4-yl)methyl)amino)-7-((R)-1-methoxyethyl)-4,8-dimethyl-7,8-dihydropteridin-6(5H)-one], in assay [1], the “Percent Remaining Activity” value is 62%. In addition, the IC50 in assay [2] (Homo sapiens, COLO 205, 5 h) is below 300 nM.

As for `COCC[C@H]1C(=O)Nc2c(C)nc(NCc3cnn(Cc4cc(C(F)(F)F)nn4C)c3)nc2N1C` [Compound 678, (S)-7-(2-methoxyethyl)-4,8-dimethyl-2-(((1-((1-methyl-3-(trifluoromethyl)-1H-pyrazol-5-yl)methyl)-1H-pyrazol-4-yl)methyl)amino)-7,8-dihydropteridin-6(5H)-one], the “Percent Remaining Activity” value in assay [1] turned out to be 75%. Moreover, the IC50 in assay [2] (Homo sapiens, COLO 205, 5 h) was below 300 nM.

Regarding “(S)-7-ethyl-2-(((1-((2-isopropyloxazol-5-yl)methyl)-1H-pyrazol-4-yl)methyl)amino)-4,8-dimethyl-7,8-dihydropteridin-6(5H)-one [Compound 513]”, the “Percent Remaining Activity” value in assay [1] is on record as 90%. Moreover, the IC50 in assay [2] is below 300 nM.
